Consider three substances from patent US20100267638A1, “EXOSITE-DIRECTED THROMBIN INHIBITORS” (CLEVELAND STATE UNIVERSITY, priority 2003, published 2010).

“And” between values parts separate entries of the source, which are not always exact repeats. Equal values may be shown once. “Also recorded” adds a separate entry of the source. No end group written: not given here.

Series [1] concerns the target T1, active-site-immobilized thrombin (Homo sapiens, UniProt P00734).
T1 construct: Factor Xa cleaves prothrombin to form thrombin; purchased Haematologic Technologies Inc. (Essex Junction, Vt.)
In words: Direct binding of the peptides to thrombin-agarose (chromatography). Particulars: 400 μg peptide, 2.5 ml column, elution 2M NaCl. As for the experimental part: Direct binding of the peptides to thrombin. Thrombin was immobilized onto agarose through the active site as described. Peptide solutions of HC1-HC5 (SEQ ID NO. 2-6, respectively), D13R (SEQ ID NO. 21), DYDYQ (SEQ ID NO. 11), and P15H (SEQ ID NO. 22) were dissolved in water to a given concentration and then diluted in 20 mM Hepes, 0.1 M NaCl, pH 7.4 in a manner that 400 μg was contained in each starting solution. In control experiments it was determined that the maximum amount of peptide that could be retained by the thrombin-agarose column was 400 μg. Since some of the peptides contain aromatic amino acid residues, their concentration was also measured by optical density.
Mass spectrometry instruments and conditions. The identity of all peptides found in the flow-through or the elution of the thrombin-agarose column was verified by mass spectrometry. Since the peptides were in a buffer solution, we used Liquid Chromatography/Mass Spectrometry (LC/MS) for their identification. In this procedure peptides are first separated from the salt content of the buffer using an HPLC system (HP 1100, HPLC gradient system, Agilent Technologies, Palo Alto Calif.) with a C18 column (1 mm×15 cm, GraceVydac, Hesperia Calif.) with buffers A (0.3% acetic acid in water) and B (0.3% acetic acid in acetonitrile). The elution of the column was monitored with a Micromass Quatro II ESI-Triple Quadrupole Mass Spectrometer (Waters, Milford Mass.). The data were collected using a Compaq Professional Workstation AP200 (Hewlett-Packard, Palo Alto Calif.) and analyzed by the software MassLynx v3.3 (Waters, Milford Mass.).
Direct interaction of hirudin-like peptides from factor tor Va heavy chain With thrombin-agarose. To ascertain that the peptides of interest are inhibitory of prothrombinase activity and contain a binding site for thrombin, the interaction of all peptides with active-site-immobilized thrombin was studied in chromatographic experiments and is shown in FIG. 5. In FIG. 5, small scale chromatography of hirudin-like peptides was performed on a 2.5 ml thrombin-agarose. Each run represents 400 μg of peptide. This amount of peptide was determined to saturate the specific sites of thrombin of the column used (2.5 ml). Elution was performed with 2M NaCl and was started at the point indicated by the arrow (fraction #30). The presence of the peptides in the corresponding fractions was monitored by absorbance at 280 nm (shown on the y axis) and by LC/MS (inset). […] Specifically, these peptides were treated similarly to all other peptides and similar fractions were collected. Aliquots from fractions #7 and #35 from each separate experiment were submitted to LC/MS analysis as described herein (depicted by the hatched arrows at the bottom of the chromatogram). The results from tube #7 from three chromatograms are depicted. The data are presented as % intensity of the signal as a function of the mass of the peptide divided by the charge (m/z). FIG. 5A, HC1 (Mr calculated 1268); FIG. 5B, HC2 (Mr calculated 1132); FIG. 5C, HC5 (Mr calculated 1053). The spectrum of HC1 has two major peaks: at 635.5 and at 424, and one minor peak at 1270 (1268+1). The peak at 635.5 represents the peptide (mass/charge) with two positive charges ([…]) i.e. [(1268+2=1270)]/2=635 whereas, the peak at 424 represents HC1 with three positive charges ([…]) i.e. [(1268+3=1271)]/3=424. […] HC5 spectrum has two major peaks: one at 528 and one at 352. The peak at 528 represents the peptide with two positive charges ([…]) i.e. [(1053+2=1055)]/2=527.5 while, the other peak represents HC5 with three positive charges ([M+31-]^2+) i.e. [(1053+3=1056)]/3=352. The minor peak at 1054 represents the peptide with one charge. It is noteworthy, that in gas phase the number of protons attached to each peptide depends on the number (quantity) of basic residues contained in each peptide. […] Thus, HC1 and HC5 are more likely to bind two or three protons than HC2. […]

The target of series [2] is T2, [OG488]-EGR-hXa-human factor tor Va (Homo sapiens, UniProt P00742).
T2 construct: purchased Haematologic Technologies Inc. (Essex Junction, Vt.)
T2 sequence (P00742 41-179 limits assumed): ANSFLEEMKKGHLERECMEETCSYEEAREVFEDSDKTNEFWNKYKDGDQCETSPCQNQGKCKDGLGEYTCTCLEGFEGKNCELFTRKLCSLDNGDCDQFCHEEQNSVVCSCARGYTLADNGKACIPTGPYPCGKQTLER
T2 sequence (P00742 235-488 limits assumed): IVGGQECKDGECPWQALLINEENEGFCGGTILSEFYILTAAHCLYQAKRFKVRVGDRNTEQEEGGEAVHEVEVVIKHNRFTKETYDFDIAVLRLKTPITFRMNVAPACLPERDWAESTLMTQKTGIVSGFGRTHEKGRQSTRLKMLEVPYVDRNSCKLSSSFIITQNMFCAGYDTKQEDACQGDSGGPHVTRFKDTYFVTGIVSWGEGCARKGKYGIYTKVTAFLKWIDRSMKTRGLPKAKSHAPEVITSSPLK
In words: Fluorescence anisotropy of preformed membrane-bound [OG488]-EGR-hXa-factor Va complex. In kind it is binding. Particulars: up to 300 μM peptide. As for the experimental part: Fluorescence Anisotropy measurements. Fluorescence anisotropy of [OG488]-EGR-hXa was measured using a Perkin Elmer LS-50B Luminescence Spectrometer in L-format as recently described. Anisotropy measurements were performed in a quartz cuvette under constant stirring (low) with λex=490 nm, λem=520 nm with a long pass filter (Schott KV-520) in the emission beam. […] The concentration of peptide given in each graph is the final concentration of the peptide in the assay mixture. […] In some cases the data were also plotted using DeltaGraph (DeltaPoint, Monterey, Calif.).
HC3 and HC4 were also tested for their ability to interfere with the fluorescence anisotropy of a preformed complex composed of membrane-bound [OG488]-EGR-hXa-human factor tor Va as described. […] The peptides must thus impair another function of the cofactor within prothrombinase.
(In fluorescence polarisation assays a small probe gives low polarisation when free and higher when bound to something large.)

Series [3] addresses T3, prothrombinase (Homo sapiens, UniProt P00734).
T3 construct: purchased Haematologic Technologies Inc. (Essex Junction, Vt.)
Kind of series: Assay measuring thrombin formation (prothrombinase inhibition by peptides, DAPA fluorescence). In kind it is biochemical. Particulars: for Ki: calculated from IC50=Ki(1+S0/Km), Km 0.4 μM, S0 350 nM prothrombin, read-out: Ki of prothrombinase inhibition; for IC50: factor Va 4 nM, factor Xa 10 nM, prothrombin 350 nM, PCPS 10 μM, peptide preincubated with factor Va; for type of inhibition of prothrombinase with respect to prothrombin: kinetic analyses, increasing prothrombin and peptide; for effect on prothrombinase / factor Va cofactor activity at fixed concentration: peptide 100 μM. As for the experimental part:
Assay measuring thrombin formation. The formation of thrombin was analyzed using the fluorescent thrombin inhibitor DAPA as described using a Perkin Elmer LS-50B Luminescence Spectrometer (Perkin-Elmer LLC, Norwalk Conn.) with λex=280 nm, λem=550 nm and a 500 nm long pass filter in the emission beam (Schott KV-500). […] In all cases peptides were preincubated with factor tor Va prior to the assay as described in the legend to the figures. The final concentration of factor tor Va in the mixture was 4 nM with factor Xa at 10 nM, prothrombin at 350 nM, DAPA at 700 nM, in the presence of PCPS vesicles (10 μM). The initial rate of thrombin formation (nM IIa·min^−1) was calculated as described during the initial 5-10 sec of the reaction. To verify if the peptides have any effect on the active-site of thrombin, control experiments were performed as follows: a given peptide (at 100 μM) was incubated in the assay buffer containing DAPA (700 nM); the base line was monitored for 30 sec; thrombin (350 nM) was then added to the mixture and the fluorescent intensity resulting from the complexation of DAPA with the active site of thrombin was monitored for 60 sec. The slope of the reaction measuring thrombin formation in the presence of a given peptide during the first 5 sec was calculated and compared to the slope of a reaction obtained in the absence of peptide. It is noteworthy that under the conditions employed the thrombin-DAPA interaction occurred fast and the calculated slope of the reaction was sensitive to all parameters used. […] All experiments were performed in triplicates or as indicated. The concentration of each peptide given in the figures and figure legends is their final concentration in the assay. […] In some cases the data were also analyzed and plotted using DeltaGraph (DeltaPoint, Monterey, Calif.).
Specifically, peptides were incubated with factor tor Va as described herein at a fixed concentration (100 μM). The percent of factor tor Va cofactor activity was calculated by comparing the activity of prothrombinase in the presence of a given peptide to the activity of prothrombinase determined in a control reaction in the absence of peptide and in the presence of factor Xa. […] The control peptide represents a pentadecapeptide from the middle portion of factor tor Va heavy chain (P15H) (SEQ ID NO. 22). […] All other peptides from region 680-709 had no significant effect on prothrombinase activity.
HC3 represents amino acid sequence 690-699 of factor tor Va heavy chain; HC4 contains the sequence 695-704 of human factor tor Va heavy chain; P15H represents amino acid sequence 337-351 from the middle portion of human factor tor Va heavy chain. […] The concentration of each peptide given on the x axis represents its final concentration in the prothrombinase mixture. […] Thus, both peptides show similar inhibitory potential.

Series [4] relates to factor V deficient plasma. Kind of series: Clotting activity of recombinant factor V molecules. As for the experimental part:
Determination of factor V/tor Va clotting activity of the recombinant molecules. Cofactor activity of wild type and mutant molecules was measured in a clotting assay using factor V deficient plasma prior and after activation by thrombin (15 min, 37° C.) and RVV-V activator (2 hr, 37° C.) as described. The values were standardized to the percentage of control. A linear semi-log graph was constructed using known concentrations of purified factor V (U/ml as a function of clotting time). The assay endpoint was determined by visualization of the fibrin clot. The activity of the factor VNa solution (U/ml) was determined by extrapolation from the graph. The concentration of the recombinant molecules was determined by a recently described ELISA. Finally, the numbers were combined to obtain the specific activity of the recombinant factor V solutions (U/mg).

Series [5] concerns prothrombinase. Kind of series: Prothrombinase assay using purified reagents and chromogenic substrate (cofactor activity of recombinant factor Va species). Particulars: activated with RVV-V activator or factor Xa.

As a reminder, the Ki is the dissociation constant of the complex between target and ligand, obtained from inhibition or displacement. In general, IC50 refers to the point on the concentration scale where inhibition reaches its midpoint. On to DYDYQNRLAA [HC4], for which the “interaction with immobilized thrombin (thrombin-agarose)” value in series [1] was “eluted from the column with high-salt buffer; also recorded: interact with immobilized thrombin”. Also, the “interference with binding of factor Va to [OG488]-EGR-hXa (anisotropy)” value in series [2] is reported as “No significant decrease; also recorded: unable to interfere with the binding of factor tor Va”. For the same substance, the “Vmax of prothrombinase in presence of increasing peptide” value on prothrombinase [3] (HC4 0.5-2 μM, increasing prothrombin) was about 525±30 nM IIa/min. Further, at prothrombinase [3], the Ki is 5.3 µM and ~5.3 µM; the IC50 is 10 µM and ~10 µM; the “type of inhibition of prothrombinase with respect to prothrombin” value is “competitive type of inhibition; also recorded: competitive inhibitors”; the “effect on prothrombinase / factor Va cofactor activity at fixed concentration” value is “inhibited prothrombinase; also recorded: complete inhibition”.

Consider EESDADYDYQ [HC3], for which the “interaction with immobilized thrombin (thrombin-agarose)” value in series [1] is “eluted from the column with high-salt buffer; also recorded: interact with immobilized thrombin”. Also, the “interference with binding of factor Va to [OG488]-EGR-hXa (anisotropy)” value in series [2] was “No significant decrease; also recorded: unable to interfere with the binding of factor tor Va”. Besides, on prothrombinase [3], the Ki is 6.3 µM and ~6.3 µM; the IC50 was 12 µM and ~12 µM; the “type of inhibition of prothrombinase with respect to prothrombin” value is given as “competitive inhibitors”; the “effect on prothrombinase / factor Va cofactor activity at fixed concentration” value was “inhibited prothrombinase; also recorded: complete inhibition”.

Take “Factor VaRVV^2K2F: quadruple mutant activated with RVV-V activator”: the “ability to promote clotting” value in series [4] was “unable to promote clotting”. In series [4] (factor V species at 2.5 nM), the Activity worked out at 0.002 U/ml, the Specific activity was found to be 2.4 U/mg and the clotting time was 73.1 ± 4 s. Also, in the series with prothrombinase [5], the “times less cofactor activity than wild type molecule activated under similar conditions” value is reported as about 22 times.
